# pIC50: −log10 of the molar value.
# Tested on: 485368-065-R4-J2-PDC spheroids with HUVEC/MSC, viability
# Test: Anticancer human tumor 485368-065-R4-J2-PDC patient-derived pancreatic carcinoma cell line growth inhibition [TAK]
# Details: for pIC50: curve of first compound; for viability, T/C: stronger effect = lower value
# Summary of the method: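 Spheroids of 60% malignant cells, 25% HUVEC and 15% hMSC were exposed to targeted agents combined with TAK-243 or ipatasertib. Concentrations started at or near clinical Cmax (10 microM if unknown) and descended in half-log steps.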
# [1] = second compound 0.3 µM, first compound 0.0316 µM
# [2] = second compound 0.3 µM, first compound 0.1 µM
# [3] = second compound 0.3 µM, first compound 0.316 µM
# [4] = second compound 0.3 µM, first compound 1 µM
# [5] = second compound 0.3 µM, first compound 3.16 µM
# [6] = second compound 0.3 µM, first compound 10 µM
# [7] = second compound 0.949 µM, first compound 0.0316 µM
# [8] = second compound 0.949 µM, first compound 0.1 µM
# [9] = second compound 0.949 µM, first compound 0.316 µM
# [10] = second compound 0.949 µM, first compound 1 µM
# [11] = second compound 0.949 µM, first compound 3.16 µM
# [12] = second compound 0.949 µM, first compound 10 µM
# [13] = second compound 3 µM, first compound 0.0316 µM
# [14] = second compound 3 µM, first compound 0.1 µM
# [15] = second compound 3 µM, first compound 0.316 µM
# [16] = second compound 3 µM, first compound 1 µM
# [17] = second compound 3 µM, first compound 3.16 µM
# [18] = second compound 3 µM, first compound 10 µM
# [19] = second compound 9.49 µM, first compound 0.0316 µM
# [20] = second compound 9.49 µM, first compound 0.1 µM
# [21] = second compound 9.49 µM, first compound 0.316 µM
# [22] = second compound 9.49 µM, first compound 1 µM
# [23] = second compound 9.49 µM, first compound 3.16 µM
# [24] = second compound 9.49 µM, first compound 10 µM
# [25] = second compound 30 µM, first compound 0.0316 µM
# [26] = second compound 30 µM, first compound 0.1 µM
# [27] = second compound 30 µM, first compound 0.316 µM
# [28] = second compound 30 µM, first compound 1 µM
# [29] = second compound 30 µM, first compound 3.16 µM
# [30] = second compound 30 µM, first compound 10 µM
# 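Note: spheroids exposed to compounds for seven days before readout.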
# 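Throughout, for viability, T/C: 100% = DMSO vehicle control wells.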
smiles,measurement,setting,value
CC(C)(C)c1nc(-c2cccc(NS(=O)(=O)c3c(F)cccc3F)c2F)c(-c2ccnc(N)n2)s1 + CC(C)NCC(C(=O)N1CCN(c2ncnc3c2C(C)CC3O)CC1)c1ccc(Cl)cc1,pIC50,second compound 0.3 µM,5.58
same,pIC50,second compound 0.949 µM,6.23
same,pIC50,second compound 3 µM,6.36
same,pIC50,second compound 9.49 µM,6.45
same,pIC50,second compound 30 µM,6.52
same,"viability, T/C",[1],104%
same,"viability, T/C",[2],92.8%
same,"viability, T/C",[3],71.8%
same,"viability, T/C",[4],52.9%
same,"viability, T/C",[5],50.4%
same,"viability, T/C",[6],47.8%
same,"viability, T/C",[7],101%
same,"viability, T/C",[8],91.3%
same,"viability, T/C",[9],63.4%
same,"viability, T/C",[10],38.5%
same,"viability, T/C",[11],30.9%
same,"viability, T/C",[12],28.1%
same,"viability, T/C",[13],98.2%
same,"viability, T/C",[14],83%
same,"viability, T/C",[15],57.2%
same,"viability, T/C",[16],31.9%
same,"viability, T/C",[17],21.2%
same,"viability, T/C",[18],18%
same,"viability, T/C",[19],93.4%
same,"viability, T/C",[20],80.2%
same,"viability, T/C",[21],52.5%
same,"viability, T/C",[22],28.3%
same,"viability, T/C",[23],18.5%
same,"viability, T/C",[24],17.5%
same,"viability, T/C",[25],77.2%
same,"viability, T/C",[26],69.9%
same,"viability, T/C",[27],49.8%
same,"viability, T/C",[28],24.8%
same,"viability, T/C",[29],16.4%
same,"viability, T/C",[30],15.3%
CC(C)n1nc(-c2ccc3oc(N)nc3c2)c2c(N)ncnc21 + CC(C)NCC(C(=O)N1CCN(c2ncnc3c2C(C)CC3O)CC1)c1ccc(Cl)cc1,pIC50,second compound 0.3 µM,7.23
same,pIC50,second compound 0.949 µM,7.53
same,pIC50,second compound 3 µM,7.68
same,pIC50,second compound 9.49 µM,8.00
same,pIC50,second compound 30 µM,8.20
same,"viability, T/C","second compound 0.3 µM, first compound 0.000316 µM",95.7%
same,"viability, T/C","second compound 0.3 µM, first compound 0.001 µM",88%
same,"viability, T/C","second compound 0.3 µM, first compound 0.00316 µM",90.6%
same,"viability, T/C","second compound 0.3 µM, first compound 0.01 µM",89.7%
same,"viability, T/C",[1],56.5%
same,"viability, T/C",[2],44.4%
same,"viability, T/C","second compound 0.949 µM, first compound 0.000316 µM",98.6%
same,"viability, T/C","second compound 0.949 µM, first compound 0.001 µM",99.3%
same,"viability, T/C","second compound 0.949 µM, first compound 0.00316 µM",91.4%
same,"viability, T/C","second compound 0.949 µM, first compound 0.01 µM",66.7%
same,"viability, T/C",[7],51.2%
same,"viability, T/C",[8],40.3%
same,"viability, T/C","second compound 3 µM, first compound 0.000316 µM",97.8%
same,"viability, T/C","second compound 3 µM, first compound 0.001 µM",94.4%
same,"viability, T/C","second compound 3 µM, first compound 0.00316 µM",81.4%
same,"viability, T/C","second compound 3 µM, first compound 0.01 µM",62.5%
same,"viability, T/C",[13],42.7%
same,"viability, T/C",[14],34.5%
same,"viability, T/C","second compound 9.49 µM, first compound 0.000316 µM",91.9%
same,"viability, T/C","second compound 9.49 µM, first compound 0.001 µM",86.1%
same,"viability, T/C","second compound 9.49 µM, first compound 0.00316 µM",75.2%
same,"viability, T/C","second compound 9.49 µM, first compound 0.01 µM",49.4%
same,"viability, T/C",[19],36.8%
same,"viability, T/C",[20],32.5%
same,"viability, T/C","second compound 30 µM, first compound 0.000316 µM",73.1%
same,"viability, T/C","second compound 30 µM, first compound 0.001 µM",69.3%
same,"viability, T/C","second compound 30 µM, first compound 0.00316 µM",57.6%
same,"viability, T/C","second compound 30 µM, first compound 0.01 µM",45.3%
same,"viability, T/C",[25],31.4%
same,"viability, T/C",[26],25.7%
CCCS(=O)(=O)Nc1ccc(F)c(C(=O)c2c[nH]c3ncc(-c4ccc(Cl)cc4)cc23)c1F + CC(C)NCC(C(=O)N1CCN(c2ncnc3c2C(C)CC3O)CC1)c1ccc(Cl)cc1,pIC50,second compound 0.3 µM,< 4.00
same,pIC50,second compound 0.949 µM,< 4.00
same,pIC50,second compound 3 µM,5.17
same,pIC50,second compound 9.49 µM,5.22
same,pIC50,second compound 30 µM,5.38
same,"viability, T/C",[3],107%
same,"viability, T/C",[4],101%
same,"viability, T/C",[5],93.5%
same,"viability, T/C",[6],50.3%
same,"viability, T/C","second compound 0.3 µM, first compound 31.6 µM",24.3%
same,"viability, T/C","second compound 0.3 µM, first compound 100 µM",80.8%
same,"viability, T/C",[9],103%
same,"viability, T/C",[10],100%
same,"viability, T/C",[11],85.7%
same,"viability, T/C",[12],40.8%
same,"viability, T/C","second compound 0.949 µM, first compound 31.6 µM",25.1%
same,"viability, T/C","second compound 0.949 µM, first compound 100 µM",85.1%
same,"viability, T/C",[15],101%
same,"viability, T/C",[16],99.5%
same,"viability, T/C",[17],78.1%
same,"viability, T/C",[18],34.7%
same,"viability, T/C","second compound 3 µM, first compound 31.6 µM",29.8%
same,"viability, T/C","second compound 3 µM, first compound 100 µM",19.4%
same,"viability, T/C",[21],96.7%
same,"viability, T/C",[22],95.6%
same,"viability, T/C",[23],77.4%
same,"viability, T/C",[24],28.8%
same,"viability, T/C","second compound 9.49 µM, first compound 31.6 µM",20.2%
same,"viability, T/C","second compound 9.49 µM, first compound 100 µM",14.8%
same,"viability, T/C",[27],84%
same,"viability, T/C",[28],83.8%
same,"viability, T/C",[29],62.7%
same,"viability, T/C",[30],10.1%
same,"viability, T/C","second compound 30 µM, first compound 31.6 µM",10.2%
same,"viability, T/C","second compound 30 µM, first compound 100 µM",9.85%
Cc1nc(NC(=O)N2CCCC2C(N)=O)sc1-c1ccnc(C(C)(C)C(F)(F)F)c1 (stereo not given) + CC(C)NCC(C(=O)N1CCN(c2ncnc3c2C(C)CC3O)CC1)c1ccc(Cl)cc1,pIC50,second compound 0.3 µM,< 5.00
same,pIC50,second compound 0.949 µM,5.02
same,pIC50,second compound 3 µM,5.13
same,pIC50,second compound 9.49 µM,5.57
same,pIC50,second compound 30 µM,5.91
same,"viability, T/C",[1],88.2%
same,"viability, T/C",[2],79.8%
same,"viability, T/C",[3],81.9%
same,"viability, T/C",[4],88.3%
same,"viability, T/C",[5],75.9%
same,"viability, T/C",[6],51.1%
same,"viability, T/C",[7],93.9%
same,"viability, T/C",[8],92%
same,"viability, T/C",[9],102%
same,"viability, T/C",[10],93.5%
same,"viability, T/C",[11],73.4%
same,"viability, T/C",[12],49.3%
same,"viability, T/C",[13],95.1%
same,"viability, T/C",[14],92.2%
same,"viability, T/C",[15],86%
same,"viability, T/C",[16],73.7%
same,"viability, T/C",[17],64.3%
same,"viability, T/C",[18],44.8%
same,"viability, T/C",[19],80.3%
same,"viability, T/C",[20],85.2%
same,"viability, T/C",[21],74.1%
same,"viability, T/C",[22],66%
same,"viability, T/C",[23],46.8%
same,"viability, T/C",[24],37.2%
same,"viability, T/C",[25],71.5%
same,"viability, T/C",[26],71.2%
same,"viability, T/C",[27],59.5%
same,"viability, T/C",[28],53.5%
same,"viability, T/C",[29],39.7%
same,"viability, T/C",[30],28.3%
